# Test results taken from US5091379A, “Topical antinflammatory compositions with minimal systemic absorption” (Du Pont Merck Pharmaceutical Company, priority 1989, dated 1992).
# Several values for one entry are separate records, joined by “and”; a condition that tells them apart may be missing. Identical values can stand only once.
# How the values were obtained:
# [1] = In vivo absorption: excretion of radioactivity in rat urine and feces; design: species or system Male Sprague-Dawley rats; details: for Percent of Dose Excreted in Feces / Percent of Dose Excreted in Urine / Percent of Dose Excreted, Total: IV 5 mg/kg
# Description: Approximately 10 mg of 14C-2-phenylmethyl-1-naphthol and 4.99 g of unlabeled 2-phenylmethyl-1-naphthol were used in the preparation of a 100 g 5% ointment or cream. The ointment was a PEG-based ointment and the cream was an oil-in-water emulsion. The specific activities for the ointment and cream were 2.71 and 2.78 uCi/g, respectively. An IV dosing solution (2.5 mg/mL) was prepared prior to dose administration by dissolving radiolabeled 14C-2-phenylmethyl-1-naphthol and unlabeled compound (1:1.5 ratio) in a PEG 400/water (60/40 v/v) solution.
# Male Sprague-Dawley rats weighing 240-300 g were used for the studies. Sixteen rats were shaved on the back one day prior to the treatment. Eight of the rats had the application site abraded by a diamond-tipped marker (2 parallel lines and 2 interceding lines). The abrasion penetrated only the stratum corneum, but not the dermis. A 0.5 g dose of 14C-2-phenylmethyl-1-naphthol ointment or cream was applied to an area of approximately 4 cm^2 on 4 nonabraded and 4 abraded rats. The treatment site was covered with gauze and occluded with a dental dam. It was further secured by micropore tape and a strip of adhesive elastoplast. Each rat was placed in an open metabolism cage. […] Four other rats weighing 270-320 g were given an intravenous dose.
# In order to determine the percent of dose in the ointment or cream that was absorbed percutaneously into the systemic circulation, an IV dose of 14C-2-phenylmethyl-1-naphthol was given to rats. The total radioactivity excreted after the IV dose serves as a reference for evaluation of topical absorption. […] The reason for the low radioactivity recovery is unknown. The percutaneous absorption from the ointment was about 2% of the applied dose. On the other hand, absorption from the cream was much higher and was about 28% of the dose.
# AA-induced edema = assay: AA-induced ear edema, topical antiinflammatory activity; type: in vivo, Male CF1 mice; details: for % Inhibition: 3 h pretreatment
# Description: The AA model was also used to evaluate and compare PEG ointment formulations containing 2-phenylmethyl-1-naphthol with oil/water cream formulations containing 2-phenylmethyl-1-naphthol. These comparisons are illustrated in Examples 5 to 7.
# Male 18-20 gram CF1 mice were used in these experiments. AA was made up fresh daily in acetone at a concentration of about 100 mg/ml. 10 μl of the AA solution (1 mg AA) was applied to the inner surface of the ear to induce swelling. […] Control animals were pretreated about 3 hours before AA application with placebo vehicles (drug free ointment or cream) with 5 mg of vehicle applied to both ears. Drug-treated animals were pretreated about 3 hours before AA application with 5 mg of the vehicle containing active drug, applied to both ears. AA was applied to 1 ear of each mouse. One hour after AA challenge, the animals were euthanized by cervical dislocation and both ears were removed. 6 mm disks were then taken using a skin biopsy punch and weighed. Swelling was determined as the difference between the weights of the AA and vehicle treated ears. Percent inhibition of swelling was calculated as follows: [formula]
# Table 7 summarizes the data for PEG ointment and oil/water cream formulations containing various concentrations of active compound. Each data point is the average of 2 experiments with 10 animals per treatment cell.
# [2] = In vitro penetration through (inflammed) hairless mouse skin; type: in vitro ADME; details: Study I, 25 mg/0.1 ml acetone
# Description: The acetone vehicles were allowed to dry. […] The donor chamber was sealed with parafilm.
# Studies were performed in which skin inflammation was induced in hairless mice in vivo, and permeability of that skin was evaluated in vitro. The three studies differed in the methods of producing inflammation. A non-inflammed control was run for each. The formulations tested were the oil/water cream and PEG ointment containing excipients (See Table 2) as in the previous example. There was no difference between the control and inflammed skin in active compound flux in all studies and for all formulations, except study II with 5% cream. […] As with human skin, acetone and cream vehicles consistently gave higher skin penetration rates than the PEG ointment.
# 5-lipoxygenase = details: cited from earlier work
# [3] = Hydrolysis of 2 to 3 in solution and during skin penetration; type: physicochemical
compound,measurement,setting,value
"Oc1c(Cc2ccccc2)ccc2ccccc12 [14C-1, 14C-2-phenylmethyl-1-naphthol]",Percent of Dose Excreted in Feces,"[1]; individual rats, 5 mg/kg",38.86% and 38.32% and 40.39% and 37.91%
same,Percent of Dose Excreted in Urine,"[1]; individual rats, 5 mg/kg",8.55% and 7.84% and 8.96% and 8.74%
same,"Percent of Dose Excreted, Total","[1]; individual rats, 5 mg/kg",47.41% and 46.16% and 49.35% and 46.65%
same,Percent of Dose Excreted in Feces,[1]; mean of 4 rats,38.87%
same,Percent of Dose Excreted in Urine,[1]; mean of 4 rats,8.52%
same,"Percent of Dose Excreted, Total",[1]; mean of 4 rats,47.39%
same,percutaneous absorption,"[1]; from PEG ointment, percent of applied dose",about 2%
same,percutaneous absorption,"[1]; from cream, percent of dose",about 28%
same,detectable radioactivity in the urine,"[1]; topical ointment or cream, daily collection",no detectable radioactivity was found in the urine
"Oc1c(Cc2ccccc2)ccc2ccccc12 [compound 1, 2-(phenylmethyl)-1-naphthol]",% Inhibition,"AA-induced edema; PEG ointment, 0.5% 1",15%
same,% Inhibition,"AA-induced edema; PEG ointment, 1% 1",62%
same,% Inhibition,"AA-induced edema; PEG ointment, 5% 1",70%
same,% Inhibition,"AA-induced edema; PEG ointment, 10% 1",90%
same,% Inhibition,"AA-induced edema; cream, 0.5% 1",26%
same,% Inhibition,"AA-induced edema; cream, 1% 1",60%
same,% Inhibition,"AA-induced edema; cream, 5% 1",86%
same,% Inhibition,"AA-induced edema; cream, 10% 1",87%
same,inhibiting the edema induced by topical arachidonic acid,"AA-induced edema; mouse, in vivo",very potent in inhibiting the edema
same,Lag Time,[2]; AA inflammed skin,13.8 ± 1.3 h
same,Lag Time,[2]; control skin,10.8 ± 1.7 h
same,inhibition of 5-lipoxygenase,5-lipoxygenase,exceptionally potent inhibitors of 5-lipoxygenase
"CC(=O)Oc1c(Cc2ccccc2)ccc2c1ccn2C [compound 2, 1-methyl-4-acetoxy-5-phenylmethyl indole]",hydrolysis,[3],hydrolyzes to 1-methyl-4-hydroxy-5-phenylmethyl indole (3)
